From patent US4235909A, “Octahydro-2H-pyrrolo[3,4-g]quinolines” (Eli Lilly and Company, priority 1979, dated 1980)
Counter-ions that a name gives are not always drawn.

How the values were obtained:
[1] = tested on: 6-hydroxydopamine-lesioned rats; assay: Rat turning test in 6-hydroxydopamine-lesioned (nigro-neostriatal-lesioned) rats, dopamine agonist activity; type: in vivo; conditions: 1 mg/kg intraperitoneal; for % of Rats Exhibiting Turning Behavior: aqueous solution; for Average Number of Turns/rat: first 15 minutes after end of latency period
Protocol: In this test, nigro-neostriatal-lesioned rats are employed, as prepared by the procedure of Ungerstedt and Arbuthnott, Brain Res, 24, 485 (1970). A compound having dopamine agonist activity causes the rats to turn in circles contralateral to the side of the lesion. After a latency period, which varies from compound to compound, the number of turns is counted over a 15-minute period.
The compounds were dissolved in water and the aqueous solution injected into the rat by the intraperitoneal route at a dose level of 1 mg/kg.

prolactin = assay: Inhibition of prolactin secretion in reserpine-treated male rats; type: in vivo, rat (Sprague-Dawley); conditions: serum one hour after treatment, reserpine pretreated male rats
Protocol: The compounds of this invention are also useful as prolactin inhibitors and as such they can be employed in the treatment of inappropriate lactation such as postpartum lactation and galactorrhea.
Adult male rats of the Sprague-Dawley strain weighing about 200 g. were housed in an air-conditioned room with controlled lighting (lights on […].) and fed lab chow and water ad libitum. Each rat received an intraperitoneal injection of 2.0 mg. of reserpine in aqueous suspension 18 hours before administration of the test drug. The purpose of the reserpine was to keep prolactin levels uniformly elevated. The compounds under test were dissolved in 10 percent ethanol, and were injected intraperitoneally at doses of 0.5 and 5 mg/kg. Each compound was administered at each dose level to a group of 10 rats, and a control group of 10 intact males received an equivalent amount of 10 percent ethanol. One hour after treatment, all rats were killed by decapitation, and 150 μl aliquots of serum were assayed for prolactin.
The difference between the prolactin level of the treated rats and prolactin level of the control rats, divided by the prolactin level of the control rats gives the percent inhibition of prolactin secretion attributable to the compounds of this invention. In the table, column 1 gives the name of the compound; and columns 2 and 3, the percent prolactin inhibition at the 0.5 and 5 mg/kg dose levels.

[2] = Acute lethality after intraperitoneal dosage (LD50); type: in vivo
Protocol: In using the compounds of this invention to inhibit prolactin secretion or to treat Parkinson's syndrome or for other pharmacologic action, a compound according to Formula I above in which R^2 is C1 -C3 alkyl or allyl and R^1 is H or C1 -C3 alkyl, or a salt thereof with a pharmaceutically-acceptable acid, is administered to a subject suffering from Parkinsonism or in need of having this prolactin level reduced in an effective amount to treat Parkinsonism or to reduce prolactin. Oral administration is preferred. If parenteral administration is used, the injection is preferably by the subcutaneous route using an appropriate pharmaceutical formulation. […] In particular, with intravenous or intramuscular administration, a water soluble pharmaceutically-acceptable salt is employed. For oral administration, the compound either as the free base or in the form of a salt thereof can also be mixed with standard pharmaceutical excipients and loaded into empty telescoping gelatin capsules or pressed into tablets. The oral dosage range is from about […]. to 10 mg./kg. of mammalian weight and the parenteral dose range from about 0.0025 to 2.5 mg./kg.

| Compound | % of Rats Exhibiting Turning Behavior [1] | Average Number of Turns/rat [1] | Percent Prolactin Inhibition at Given Dose (prolactin; 0.5 mg/kg intraperitoneal) | Percent Prolactin Inhibition at Given Dose (prolactin; 5 mg/kg intraperitoneal) | LD50 ([2]; in vivo, ip, intraperitoneal, indicated from lethality at the doses tested) | deaths ([2]; intraperitoneal dosages of 10-30 mg./kg.) | lethality ([2]; intraperitoneal dosages of 100-300 mg./kg.) |
| --- | --- | --- | --- | --- | --- | --- | --- |
| CCCN1C[C@H](CO)C[C@@H]2Cc3c[nH]cc3C[C@H]21 (relative stereo) [trans-dl-5-n-propyl-7-hydroxymethyl-4,4a,5,6,7,8,8a,9-octahydropyrrolo[3,4-g]quinoline] | 100% | 109 Turns/rat | – | – | – | – | – |
| CN1CCC[C@@H]2Cc3c[nH]cc3C[C@H]21 (relative stereo) [trans-dl-5-Methyl-4,4a,5,6,7,8,8a,9-octahydro-2H-pyrrolo[3,4-g]quinoline maleate] | 33% | 20 Turns/rat | 23% | 90% | – | – | – |
| CCCN1CCC[C@@H]2Cc3c[nH]cc3C[C@H]21 (relative stereo) | – | – | – | – | 30 to 100 mg/kg | no deaths | fatal |
| CCCN1CCC[C@@H]2Cc3c[nH]cc3C[C@H]21 (relative stereo) [trans-dl-5-n-Propyl-4,4a,5,6,7,8,8a,9-octahydro-2H-pyrrolo-[3,4-g]quinoline maleate] | 100% | 169 Turns/rat | – | 95% | – | – | – |
